This is an account of results in patent publication US12454551B2, “Peptides as inhibitors of fibrotic matrix accumulation” (Max-Planck-Gesellschaft zur Förderung der Wissenschaften …, priority 2019, dated 2025).

In experiment [1] the test system is bleomycin induced lung fibrosis in C57bl/6 mice. Briefly: bleomycin induced lung fibrosis in mice (total collagen in the lung). To be noted: intratracheal bleomycin on day 0; 1 mg/mouse/day s.c. from day 11 for 10 days; vs bleomycin alone (p<0.05) or with control peptides. The format is in vivo. The protocol: FIG. 4 Prevention of fibrosis progression by the cyclic peptide Gly-Leu-Gln-Gly-Glu (SEQ ID NO: 5) (acetate salt). Lung fibrosis was induced in 6-week-old male C57bl/6 mice using intratracheal bleomycin instillation at a dose of 0.005 units in 50 μl on day 0. Starting on day 11, cyclic Gly-Leu-Gln-Gly-Glu (cyclic GLQGE; SEQ ID NO: 5) was injected subcutaneously at a dose of 1 mg/mouse/day in 0.9% NaCl for a total of 10 days. The control group only received daily injections of 0.9% NaCl. The number of animals in the four groups was N=14/10/10/9 in three experiments. The cyclic peptide Gly-Leu-Gln-Gly-Glu (Cyclic GLQGE; SEQ ID NO: 5) (acetate salt) was tested and compared to cyclic Ac-Gly-Leu-Asn-Gly-Glu (Cyclic GLNGE; SEQ ID NO: 10) (acetate salt) and to cyclic Ac-Gly-Leu-Hyp-Gly-Glu (Cyclic GLOGE; SEQ ID NO: 15) (acetate salt), *p<0.05. Evaluated by t-test. Data are presented as mean ±SEM.
The cyclic peptide Gly-Leu-Gln-Gly-Glu (cyclic GLQGE (SEQ ID NO: 5) acetate salt) was tested for its ability in prevention of lung fibrosis in mice. Lung fibrosis was induced in 6-week-old male C57bl/6 mice using intratracheal bleomycin instillation at a dose of 0.005 units in 50 μl 0.9% NaCl on day 0. […]

The subject of experiment [2] is CCl4 induced liver fibrosis in mice. Briefly: CCl4 induced liver fibrosis in mice (collagen accumulation in the liver). It counts as in vivo. Particulars: for collagen accumulation in the liver (marker of matrix accumulation): mice, CCl4 for 6 weeks, peptide 25 mg/kg/mouse/day intraperitoneal in NaCl 0.9% from day 32 for 10 days, vs CCl4-treated mice, FIG. 1 and 2. The protocol:
FIG. 1 Prevention of fibrosis progression by proline-containing cyclic and amidated linear peptides. Mice were injected for 6 weeks with CCl4 in order to induce liver fibrosis. Starting on day 32 the mice received daily intraperitoneal injections of 25 mg/kg/mouse/day of the peptides in 0.9% NaCl for a total of 10 days. CCl4-treated mice also received NaCl 0.9%. The healthy control group (CT) only received 0.9% NaCl. N=4/10/[…]/8/11/7 in two experiments. The following peptides were tested on CCl4-treated mice: cyclic Pro-Gly-Leu-Gln-Gly-Glu (Cyclic PGLQGE; SEQ ID NO: 6), and compared to two controls: cyclic Pro-Gly-Leu-Asn-Gly-Glu (Cyclic CT1+P: cyclic PGLNGE; SEQ ID NO: 11) and cyclic Pro-Gly-Leu-Hyp-Gly-Glu (Cyclic CT2+P: cyclic PGLOGE; SEQ ID NO: 16). Linear Gly-Leu-Gln-Gly-Glu-NH2 (Linear GLQGE-NH2; SEQ ID NO: 4) was also tested and compared to two controls: linear Gly-Leu-Asn-Gly-Glu-NH2 (Linear CT1—NH2: linear GLNGE-NH2; SEQ ID NO: 9) and linear Gly-Leu-Hyp-Gly-Glu-NH2 (Linear CT2—NH2: linear GLOGE-NH2; SEQ ID NO: 14). * p<0.05. Evaluated by t-test. Data presented as mean+SEM.
FIG. 2 Prevention of fibrosis progression by cyclic peptides and acetylated linear peptides. Mice were injected for 6 weeks with CCl4 in order to induce liver fibrosis. Starting on day 32 the mice received daily intraperitoneal injections of 25 mg/kg/mouse/day of the peptides in 0.9% NaCl for a total of 10 days. CCl4-treated mice also received NaCl 0.9%. The healthy control group (CT) only received 0.9% NaCl. N=5/18/9/9/6/5/4/4 in two experiments. The following peptides were tested on CCl4-treated mice: cyclic Gly-Leu-Gln-Gly-Glu (Cyclic GLQGE; SEQ ID NO: 5), and compared to two controls: cyclic Gly-Leu-Asn-Gly-Glu (Cyclic CT1: cyclic GLNGE; SEQ ID NO: 10) and cyclic Gly-Leu-Hyp-Gly-Glu (Cyclic CT2: cyclic GLOGE; SEQ ID NO: 15). Linear Ac-Gly-Leu-Gln-Gly-Glu (Linear Ac-GLQGE; SEQ ID NO: 3) was also tested and compared to two controls: linear Ac-Gly-Leu-Asn-Gly-Glu (Linear Ac-CT1: linear Ac-GLNGE; SEQ ID NO: 8) and linear Ac-Gly-Leu-Hyp-Gly-Glu (Linear Ac-CT2: linear Ac-GLOGE; SEQ ID NO: 13). * p<0.05, ** p<0.005. Evaluated by t-test. Data presented as mean+SEM.
Mice were injected for 6 weeks with CCl4 in order to induce liver fibrosis. Starting on day 32 the mice received daily intraperitoneal injections of the peptides at a final dose of 25 mg/kg/mouse/day diluted in NaCl 0.9% for a total of 10 days. In these experiments, the following peptides were tested: cyclic peptide Pro-Gly-Leu-Gln-Gly-Glu (SEQ ID NO: 6), cyclic peptide Pro-Gly-Leu-Asn-Gly-Glu (SEQ ID NO: 11), cyclic peptide Pro-Gly-Leu-Hyp-Gly-Glu (SEQ ID NO: 16), linear peptide Gly-Leu-Gln-Gly-Glu-NH2 (SEQ ID NO: 4), linear peptide Gly-Leu-Asn-Gly-Glu-NH2 (SEQ ID NO: 9), linear peptide Gly-Leu-Hyp-Gly-Glu-NH2 (SEQ ID NO: 14).
Mice were injected for 6 weeks with CCl4 in order to induce liver fibrosis. Starting on day 32 the mice received daily intraperitoneal injections of the peptides at a final dose of 25 mg/kg/mouse/day diluted in NaCl 0.9% for a total of 10 days. In these experiments, the following peptides were tested: cyclic peptide Gly-Leu-Gln-Gly-Glu (SEQ ID NO: 5), cyclic peptide Gly-Leu-Asn-Gly-Glu (SEQ ID NO: 10), cyclic peptide Gly-Leu-Hyp-Gly-Glu (SEQ ID NO: 15), linear peptide Ac-Gly-Leu-Gln-Gly-Glu (SEQ ID NO: 3), linear peptide Ac-Gly-Leu-Asn-Gly-Glu (SEQ ID NO: 8), linear peptide Ac-Gly-Leu-Hyp-Gly-Glu (SEQ ID NO: 13).

Experiment [3] deals with TGFβ expression in murine hepatocytes. Briefly: unstimulated TGFβ expression in murine hepatocytes. It counts as cell-based. Particulars: data not shown.

Structures can show the parent of a compound that is named as a salt. Residues, ends and D or L forms follow the SMILES beside them. No end group written: not given here.

Turning to `CC(C)C[C@@H]1NC(=O)CNC(=O)[C@H](CCC(=O)O)NC(=O)CNC(=O)[C@H](CCC(N)=O)NC1=O` [SEQ ID NO: 5 (acetate salt), Gly-Leu-Gln-Gly-Glu] (HELM PEPTIDE1{E.G.L.Q.G}$PEPTIDE1,PEPTIDE1,1:R1-5:R2$$$V2.0), the “total amount of collagen in the lung” value in experiment [1] is “significantly diminished”.

Consider `CC(C)C[C@@H]1NC(=O)CNC(=O)[C@H](CCC(=O)O)NC(=O)CNC(=O)[C@H](CC(N)=O)NC1=O` [SEQ ID NO: 10, Gly-Leu-Asn-Gly-Glu, reference compound] (HELM PEPTIDE1{E.G.L.N.G}$PEPTIDE1,PEPTIDE1,1:R1-5:R2$$$V2.0), for which, in experiment [2], the “collagen accumulation in the liver (marker of matrix accumulation)” value (“collagen accumulation in the liver” below) is given as “failed to inhibit collagen accumulation”.

Regarding `CC(C)C[C@H](NC(=O)CN)C(=O)N1C[C@@H](O)C[C@H]1C(=O)NCC(=O)N[C@@H](CCC(=O)O)C(N)=O` [SEQ ID NO: 14, Gly-Leu-Hyp-Gly-Glu-NH2], the “unstimulated TGFβ expression” value in experiment [3] is “had no effect”.

Consider `CC(C)C[C@@H]1NC(=O)CNC(=O)[C@H](CCC(=O)O)NC(=O)CNC(=O)[C@@H]2C[C@@H](O)CN2C1=O` [SEQ ID NO: 15, Gly-Leu-Hyp-Gly-Glu, reference compound] (HELM PEPTIDE1{E.G.L.[Hyp].G}$PEPTIDE1,PEPTIDE1,1:R1-5:R2$$$V2.0), for which, in experiment [2], the “collagen accumulation in the liver” value is given as “failed to inhibit collagen accumulation”.

Take “Ac-GLQGE [SEQ ID NO: 3, Ac-Gly-Leu-Gln-Gly-Glu]”: in experiment [2], the “collagen accumulation in the liver” value is given as “able to significantly reduce CCl4-induced collagen accumulation”.

As for “GLNGE-NH2 [SEQ ID NO: 9, Gly-Leu-Asn-Gly-Glu-NH2]”, the “unstimulated TGFβ expression” value in experiment [3] was “had no effect”.

“GLQGE-NH2 [SEQ ID NO: 4, Gly-Leu-Gln-Gly-Glu-NH2]”: the “unstimulated TGFβ expression” value in experiment [3] is “efficiently inhibits”. Further, in experiment [2], the “collagen accumulation in the liver” value is reported as “able to significantly reduce CCl4-induced collagen accumulation”.

As to “Gly-Leu-Gln-Gly-Glu (GLQGE; SITE 1..5 peptide bond between the amino-terminus and the carboxyl-terminus; listed as Homo sapiens) [SEQ ID NO: 5]”, the “efficiency in reducing collagen accumulation in comparison to the cyclic peptide with proline Pro-Gly-Leu-Gln-Gly-Glu (SEQ ID NO: 6)” value in experiment [2] (CCl4 liver fibrosis in mice, comparison of Y-axis values of FIGS. 1 and 2, p<0.001) is given as “more efficient in reducing collagen accumulation”. In addition, in experiment [2] (chemically induced chronic liver damage in mice), the “inhibitory effect on collagen accumulation compared to linear Gly-Leu-Gln-Gly-Glu-NH2 (SEQ ID NO: 4) or Ac-Gly-Leu-Gln-Gly-Glu (SEQ ID NO: 3)” value is given as “larger inhibitory effect”. Moreover, the “collagen accumulation in the liver” value in experiment [2] is listed as “able to significantly reduce collagen accumulation”.

On to PGLQGE [SEQ ID NO: 6], for which the “collagen accumulation in the liver” value in experiment [2] is listed as “able to significantly reduce collagen accumulation”.
